BindingDB's records for doi:10.1021/acsmedchemlett.0c00015 (The Genomics Institute of The Novartis Research Foundation, 2020)

Assays:
[1] = Inhibition of ZAP70 (unknown origin) transfected in mouse Ba/F3 cells assessed as reduction in cell viability incubated for 48 hrs by brightglo-luciferase reporter gene assay
[2] = Inhibition of IGF1R (unknown origin) transfected in mouse Ba/F3 cells assessed as reduction in cell viability incubated for 48 hrs by brightglo-luciferase reporter gene assay
[3] = Inhibition of RET (unknown origin) transfected in mouse Ba/F3 cells assessed as reduction in cell viability incubated for 48 hrs by brightglo-luciferase reporter gene assay
[4] = Inhibition of FLT3 (unknown origin) transfected in mouse Ba/F3 cells assessed as reduction in cell viability incubated for 48 hrs by brightglo-luciferase reporter gene assay
[5] = Inhibition of JAK2 (unknown origin) transfected in mouse Ba/F3 cells assessed as reduction in cell viability incubated for 48 hrs by brightglo-luciferase reporter gene assay
[6] = Inhibition of FGR (unknown origin) transfected in mouse Ba/F3 cells assessed as reduction in cell viability incubated for 48 hrs by brightglo-luciferase reporter gene assay
[7] = Inhibition of TYRO3 (unknown origin) transfected in mouse Ba/F3 cells assessed as reduction in cell viability incubated for 48 hrs by brightglo-luciferase reporter gene assay
[8] = Inhibition of FLT1 (unknown origin) transfected in mouse Ba/F3 cells assessed as reduction in cell viability incubated for 48 hrs by brightglo-luciferase reporter gene assay
[9] = Inhibition of INSR (unknown origin) transfected in mouse Ba/F3 cells assessed as reduction in cell viability incubated for 48 hrs by brightglo-luciferase reporter gene assay
[10] = Inhibition of FGFR2 (unknown origin) transfected in mouse Ba/F3 cells assessed as reduction in cell viability incubated for 48 hrs by brightglo-luciferase reporter gene assay
[11] = Inhibition of FGFR4 (unknown origin) transfected in mouse Ba/F3 cells assessed as reduction in cell viability incubated for 48 hrs by brightglo-luciferase reporter gene assay
[12] = Inhibition of PDGFRalpha (unknown origin) transfected in mouse Ba/F3 cells assessed as reduction in cell viability incubated for 48 hrs by brightglo-luciferase reporter gene assay
[13] = Inhibition of TIE1 (unknown origin) transfected in mouse Ba/F3 cells assessed as reduction in cell viability incubated for 48 hrs by brightglo-luciferase reporter gene assay
[14] = Inhibition of NPM/ALK (unknown origin) transfected in mouse Ba/F3 cells assessed as reduction in cell viability incubated for 48 hrs by brightglo-luciferase reporter gene assay
[15] = Inhibition of PDGFRbeta (unknown origin) transfected in mouse Ba/F3 cells assessed as reduction in cell viability incubated for 48 hrs by brightglo-luciferase reporter gene assay
[16] = Inhibition of FGFR1 (unknown origin) transfected in mouse Ba/F3 cells assessed as reduction in cell viability incubated for 48 hrs by brightglo-luciferase reporter gene assay
[17] = Inhibition of TRKA (unknown origin) transfected in mouse Ba/F3 cells assessed as reduction in cell viability incubated for 48 hrs by brightglo-luciferase reporter gene assay
[18] = Inhibition of SYK (unknown origin) transfected in mouse Ba/F3 cells assessed as reduction in cell viability incubated for 48 hrs by brightglo-luciferase reporter gene assay
[19] = Inhibition of RON (unknown origin) transfected in mouse Ba/F3 cells assessed as reduction in cell viability incubated for 48 hrs by brightglo-luciferase reporter gene assay
[20] = Inhibition of MER (unknown origin) transfected in mouse Ba/F3 cells assessed as reduction in cell viability incubated for 48 hrs by brightglo-luciferase reporter gene assay
[21] = Inhibition of KIT (unknown origin) transfected in mouse Ba/F3 cells assessed as reduction in cell viability incubated for 48 hrs by brightglo-luciferase reporter gene assay
[22] = Inhibition of KIF5B-RET (unknown origin) transfected in mouse Ba/F3 cells assessed as reduction in cell viability incubated for 48 hrs by brightglo-luciferase reporter gene assay
[23] = Inhibition of BLK (unknown origin) transfected in mouse Ba/F3 cells assessed as reduction in cell viability incubated for 48 hrs by brightglo-luciferase reporter gene assay
[24] = Inhibition of TRKC (unknown origin) transfected in mouse Ba/F3 cells assessed as reduction in cell viability incubated for 48 hrs by brightglo-luciferase reporter gene assay
[25] = Inhibition of FGFR3 (unknown origin) transfected in mouse Ba/F3 cells assessed as reduction in cell viability incubated for 48 hrs by brightglo-luciferase reporter gene assay
[26] = Inhibition of KIF5B-RET V804M mutant (unknown origin) transfected in mouse Ba/F3 cells assessed as reduction in cell viability incubated for 48 hrs by brightglo-luciferase reporter gene assay
[27] = Inhibition of TRKB (unknown origin) transfected in mouse Ba/F3 cells assessed as reduction in cell viability incubated for 48 hrs by brightglo-luciferase reporter gene assay
[28] = Inhibition of LCK (unknown origin) transfected in mouse Ba/F3 cells assessed as reduction in cell viability incubated for 48 hrs by brightglo-luciferase reporter gene assay
[29] = Inhibition of ROS (unknown origin) transfected in mouse Ba/F3 cells assessed as reduction in cell viability incubated for 48 hrs by brightglo-luciferase reporter gene assay
[30] = Inhibition of BMX (unknown origin) transfected in mouse Ba/F3 cells assessed as reduction in cell viability incubated for 48 hrs by brightglo-luciferase reporter gene assay
[31] = Inhibition of LYN (unknown origin) transfected in mouse Ba/F3 cells assessed as reduction in cell viability incubated for 48 hrs by brightglo-luciferase reporter gene assay
[32] = Inhibition of FMS (unknown origin) transfected in mouse Ba/F3 cells assessed as reduction in cell viability incubated for 48 hrs by brightglo-luciferase reporter gene assay
[33] = Inhibition of MET (unknown origin) transfected in mouse Ba/F3 cells assessed as reduction in cell viability incubated for 48 hrs by brightglo-luciferase reporter gene assay
[34] = Inhibition of KDR (unknown origin) transfected in mouse Ba/F3 cells assessed as reduction in cell viability incubated for 48 hrs by brightglo-luciferase reporter gene assay
[35] = Inhibition of SRC (unknown origin) transfected in mouse Ba/F3 cells assessed as reduction in cell viability incubated for 48 hrs by brightglo-luciferase reporter gene assay
[36] = Inhibition of TEL/KDR (unknown origin) transfected in mouse Ba/F3 cells assessed as reduction in cell viability incubated for 48 hrs by brightglo-luciferase reporter gene assay
[37] = Inhibition of CCDC6/RET (unknown origin) transfected in human LC2/ad cells assessed as reduction in cell viability incubated for 6 days by CellTiter Glo assay

`COC(=O)Nc1ccc(-c2c(OC3CCN(C)CC3)nc3c(-c4ccc(OC)c(OC)c4)cnn3c2N)cc1` showed an IC50 [1] of 9100 nM, an IC50 [2] greater than 7500 nM and an IC50 [3] of 6 nM. For the same molecule, the IC50 [4] was 3400 nM, the IC50 [5] was 84 nM and the IC50 [6] was 440 nM. The IC50 [7] was 3700 nM, the IC50 [8] was 3000 nM and the IC50 [9] was greater than 9100 nM. For the same molecule, the IC50 [10] was 8 nM, the IC50 [11] was 35 nM and the IC50 [12] was 17 nM. The IC50 [13] was greater than 10000 nM, the IC50 [14] was 1200 nM and the IC50 [15] was 22 nM. It also gave an IC50 [16] of 10 nM, an IC50 [17] of 2800 nM and an IC50 [18] of 1400 nM. It also gave an IC50 [19] of 6000 nM, an IC50 [20] of 86 nM and an IC50 [21] of 20 nM. The IC50 [22] was 6 nM, the IC50 [23] was 230 nM and the IC50 [24] was 1400 nM. It also gave an IC50 [25] of 430 nM, an IC50 [26] of 19 nM and an IC50 [27] of 2100 nM. For the same molecule, the IC50 [28] was 2400 nM, the IC50 [29] was 5500 nM and the IC50 [30] was greater than 7400 nM. For the same molecule, the IC50 [31] was 67 nM, the IC50 [32] was 82 nM and the IC50 [33] was greater than 11000 nM. For the same molecule, the IC50 [34] was 26 nM.

Work on `COc1ccc(-c2cnn3c(N)c(-c4nccs4)c(OC4CCN(C)CC4)nc23)cc1OC` yielded an IC50 [1] greater than 11000 nM, an IC50 [2] of 8700 nM and an IC50 [3] of 210 nM. It also gave an IC50 [4] greater than 11000 nM, an IC50 [5] of 3800 nM and an IC50 [6] of 4100 nM. It also gave an IC50 [7] greater than 11000 nM, an IC50 [8] greater than 11000 nM and an IC50 [9] greater than 10000 nM. For the same molecule, the IC50 [10] was 3000 nM, the IC50 [11] was 4400 nM and the IC50 [12] was 9 nM. It also gave an IC50 [13] greater than 11000 nM, an IC50 [14] greater than 11000 nM and an IC50 [15] of 41 nM. For the same molecule, the IC50 [16] was 3100 nM, the IC50 [17] was greater than 11000 nM and the IC50 [18] was greater than 11000 nM. The IC50 [19] was greater than 11000 nM, the IC50 [20] was greater than 8700 nM and the IC50 [21] was 1600 nM. It also gave an IC50 [22] of 120 nM, an IC50 [23] of 8200 nM and an IC50 [24] of 500 nM. It also gave an IC50 [25] of 4900 nM, an IC50 [26] of 610 nM and an IC50 [35] of 2400 nM. For the same molecule, the IC50 [27] was 770 nM, the IC50 [28] was 1200 nM and the IC50 [29] was greater than 11000 nM. The IC50 [30] was greater than 11000 nM, the IC50 [31] was 1500 nM and the IC50 [32] was 4300 nM. For the same molecule, the IC50 [33] was greater than 11000 nM and the IC50 [34] was 240 nM.

`CN1C(C)(C)CC(Nc2nc3c(-c4ccc(C(=O)N5CCN(S(C)(=O)=O)CC5)cc4)cnn3c(N)c2-c2ccccc2)CC1(C)C` showed an IC50 [36] of 1100 nM, an IC50 [37] of 6.2 nM and an IC50 [22] of 6.3 nM.

Molecule `COc1ccc(-c2cnn3c(N)c(-c4ccccc4)c(OCCCN(C)C)nc23)cc1OC` has an IC50 [36] of 3000 nM and an IC50 [22] of 70 nM.

Work on `CN1C(C)(C)CC(Nc2nc3c(-c4ccc(C(=O)N5C[C@@H]6C[C@H]5CO6)cc4)cnn3c(N)c2-c2ccccc2)CC1(C)C` yielded an IC50 [36] of 1300 nM, an IC50 [37] of 16 nM and an IC50 [22] of 5.4 nM.

`COc1ccc(-c2cnn3c(N)c(-c4ccccc4)c(NCCCN(C)C)nc23)cc1OC` showed an IC50 [36] greater than 7900 nM and an IC50 [22] of 56 nM.
